Each block holds one compound with its values, some of them ahead of it.
Legend:
Granta cells [1] = assay: Apoptosis induction (PI staining sub-G1, PARP cleavage) in Granta cells; type: cell-based, human
Experimental: (§1) Apoptosis induction was evaluated using Western blot analysis of PARP cleavage and propidium iodine (PI) staining (Ref. 14; incorporated by reference in its entirety).
(§2) Cooperative anti-lymphoma effects of Dex and PI3K/Akt/mTOR inhibitors in vitro. PI3K/Akt/mTOR inhibitors were developed as anti-cancer drugs. To assess whether and how PI3K/Akt/mTOR inhibitors interacted with Dex anti-lymphoma effects, experiments were conducted to evaluate the efficacy of the combined treatment in vitro using such readouts as cell viability (MTT test) and apoptosis (PARP cleavage and sub-G1-phase cell population determined by FACS). The cytotoxic effect of Dex and PI3K inhibitors in wide concentration range (LY294002 1-500 uM, WM 0.1-25 uM, AZD8055 0.05-5 uM) was assessed (FIG. 8) and determined IC50 values after 24 h treatment (Table 8).
(§3) The effect of Dex combined with LY294002, AZD8055, WM or reference inhibitor Rapa was examined on apoptosis.

CEM cells [2] = assay: MTT cell viability / cytotoxicity assay in CEM cells; type: cell-based, human; conditions: for IC50: Homo sapiens, CCRF-CEM, MTT assay, after 24 h treatment
Experimental: (§4) Cell cultures. Acute lymphoblastic leukemia cell line CEM and mantle cell lymphoma cell line Granta were obtained from ATCC and cultured in RPMI-1640 (Thermo Fischer) with 10% FBS (HyClone), sodium piruvate (10 mM), HEPES (10 mM) and antibiotics (referred thereafter as complete medium; Thermo Fischer) (Ref 14; incorporated by reference in its entirety). Peripheral blood samples were collected from healthy volunteers. The ethical Committee of the Blokhin Cancer Research Center approved this study, written informed consents were provided. Mononuclear cell fraction was isolated by 1.077 g/ml Ficoll-Isopaque density-gradient centrifugation and cultured in the complete medium. Cells were pretreated with Rapa (0.1-5 uM), LY294002 (10-100 uM), WM (1-10 uM) and AZD8055 (0.1-2 uM) or vehicle for 6 h, then were treated for Dex (1-10 uM) or vehicle for 24-144 h as indicated.
(§5) Analysis of cell viability and apoptosis induction. Cell viability was assessed using the MTT assay as follows: cells were incubated at 37° C. for 3 h with 20 ul of MTT solution (5 mg/ml). Supernatant was discarded and 150 μL of 100% DMSO was added to each well. Optical density was measured at 495 nm using a microplate reader MultiScan MCC 340 (Labsystems). The IC50 values was calculated using Quest Graph IC50 Calculator free software. Isobolograms were constructed (Ref 15; incorporated by reference in its entirety). IC50 values of PI3K inhibitors or Dex as single agents were plotted as 1 on the x and y axes, respectively. Various concentrations of PI3K inhibitors and for Dex were combined. The IC50 values for each compound in the combination were calculated and plotted as a percentage of each single drug. The disposition of data points below, above or on the line of additivity indicates synergy, antagonism or additivity, correspondingly.
(§6) PI3K/Akt/mTOR inhibitors were developed as anti-cancer drugs. To assess whether and how PI3K/Akt/mTOR inhibitors interacted with Dex anti-lymphoma effects, experiments were conducted to evaluate the efficacy of the combined treatment in vitro using such readouts as cell viability (MTT test) and apoptosis (PARP cleavage and sub-G1-phase cell population determined by FACS).

CEM cells [3] = assay: Apoptosis induction (PI staining sub-G1, PARP cleavage) in CEM cells; type: cell-based, human
Experimental: as §1, §2, §3

Granta cells [4] = assay: MTT cell viability / cytotoxicity assay in Granta cells; type: cell-based, human; conditions: for IC50: Homo sapiens, MTT assay, after 24 h treatment
Experimental: as §4, §5, §6

GR [5] = assay: GRE.Luciferase reporter assay (GR transactivation) in CEM and Granta cells; type: cell-based, human
Experimental: Luciferase assay. GRE.Luc, NF-κB.Luc and control mCMV.Luc reporter cells were generated (Ref. 13; incorporated by reference in its entirety) using viral stocks obtained from Northwestern University SDRC DNA/RNA delivery Core. Luciferase activity was measured (Ref. 10; incorporated by reference in its entirety).
REDD1 is a GR target gene (Refs. 10,21; incorporated by reference in their entireties). To assess whether REDD1 inhibitors could modify GR function, LY294002, WM and AZD8055 effect on GR TA and TR was evaluated using CEM and Granta cells transduced with GRE.Luc and NF-kB.Luc reporters. […] Luciferase activity in both cell lines (FIG. 2A, C). […] Attenuation of GR TA was further confirmed by Q-PCR analysis of known GR-target genes including GR chaperone FKBP51 (Refs. 12,14; incorporated by reference in their entireties), mediator of Gcs anti-inflammatory effects GILZ (22,23), transcriptional activator KLF9 (24) and inhibitor of cytokine production MKP-1 (25) (FIG. 2B, D and FIG. 7A, B).

REDD1 = REDD1 mRNA/protein expression (Q-PCR, Western blot) in CEM and Granta cells; type: cell-based, human
Experimental: as §4
(§7) Western blot analysis. Western blot analysis was performed (Ref 10; incorporated by reference in its entirety). The following antibodies were used: GR (H-300) (Santa Cruz Biotechnology, Dallas, TX), phospho-GR (Ser211), phospho-4E-BP1 (Thr37/46), phospho-Akt (Ser473), Akt, 4E-BP1, cleaved and full-length PARP, GAPDH, HDAC1 (Cell Signaling, San Jose, CA), REDD1 (Proteintech Group, Rosemont, IL).
RNA extraction and Q-PCR. […]

GR [6] = assay: Western blot of GR nuclear translocation; type: cell-based, human; conditions: CEM and Granta cells; LY294002 50 uM, AZD8055 1 uM, Dex 1 uM 24 h
Experimental: as §7
To identify the molecular mechanisms underlying GR functional changes induced by PI3K/Akt/mTOR inhibitors, the effect of these compounds on major steps in GR activation was assessed: GR phosphorylation at Ser211 and nuclear translocation that are critical for GR TA (Refs. 27,28; incorporated by reference in their entireties).

Granta xenografts = assay: Granta lymphoma xenograft tumor growth study; type: in vivo, nu/nu mice; conditions: 27th day of treatment, vs control; i.p. every 48 h; LY294002 20 mg/kg, Rapa 5 mg/kg, Dex 1 mg/kg
Experimental: Xenograft tumor growth study. 10 million Granta cells in 200 ul BD Matrigel Matrix were subcutaneously injected into the right flank of 7 weeks old female nu/nu mice (Taconic). Animals were randomized and treated every 48 h with LY294002 (20 mg/kg), Rapamycin (5 mg/kg) of vehicle (30% PEG3350, 4% DMSO, 5% Tween 20 in PBS) followed by Dex (1 mg/kg) of vehicle (5% DMSO in PBS) 6 h later. Body weight was recorded twice a week. Tumor size was measured twice a week by digital calipers, drug interaction mode was calculated based on combination index method (Refs. 16,17; incorporated by reference in their entireties). Combination index (CI) of Dex+Rapa/LY294002 was calculated as ratio (observed fraction value of combination group)/(expected fraction value of combination group). The observed fractions were calculated as ratio (mean value of experiment)/(mean value of control), and the expected fractions values of combination effect between combined groups and single drug groups were calculated as expected fraction=(mean observed fraction of Dex)×(mean observed fraction of Rapa/LY294002). CI<1, CI=1 and CI>1 indicates a synergy, additive effect and antagonism, respectively.
Histological analysis and immunostaining. […] Ki67 and Caspase 3 were detected by immunostaining with antibodies to Ki-67 and Caspase-3 (Cell Signaling, San Jose, CA).
Morphometric analysis. Quantification of the epidermal width, dermal adipose thickness, bone thickness and cellularity of xenograft tissue was performed in sections stained with hematoxylin and eosin. At least 5 individual fields per slide of each individual sample/treatment (at least 50 images/treatment group) were analyzed using Axioplan2 microscope software (Carl Zeiss). […]
Animals were randomized to different treatment groups after tumor volume reached 50 mm3. […] All treatment regiments were only minimally toxic according to the steady increase in body weight monitored twice weekly (FIG. 11). Tumor volume was measured also twice a week (FIG. 12).

[7] = system: Dex-induced osteoporosis and skin atrophy; assay: Glucocorticoid-induced osteoporosis (GIOP) and skin atrophy model; type: in vivo, BALB/c female mice
Experimental: Glucocorticoid-induced osteoporosis (GIOP). GIOP was induced as described (18) by i.p. injection of Dex (10 mg/kg) in 12 weeks old BALB/c female mice (“Stolbovaya”, Moscow region, Russia) every 48 h for 5 weeks. 6 h prior to Dex, animals were treated i.p. with LY294002 (20 mg/kg), Rapamycin (5 mg/kg) of vehicle (30% PEG3350, 4% DMSO, 5% Tween-20 in PBS). Body weight was recorded twice a week.
Histological analysis and immunostaining. Xenograft and skin samples were fixed in formaldehyde, embedded in paraffin, sections were stained with hematoxylin and eosin. The bone samples after formaldehyde fixation were decalcinated in decalcination buffer (0.5 M EDTA, 0.7 mM NaOH, pH=7.0) for 14 days, then washed with PBS twice and further processed according to standard histology protocol. Ki67 and Caspase 3 were detected by immunostaining with antibodies to Ki-67 and Caspase-3 (Cell Signaling, San Jose, CA).
Morphometric analysis. Quantification of the epidermal width, dermal adipose thickness, bone thickness and cellularity of xenograft tissue was performed in sections stained with hematoxylin and eosin. At least 5 individual fields per slide of each individual sample/treatment (at least 50 images/treatment group) were analyzed using Axioplan2 microscope software (Carl Zeiss). The epidermal, dermal adipose, or bone thickness and cell density in treated animals is presented as % to control animals.
To test whether REDD1 inhibitors protect against systemic atrophic effects of Gcs, a model of Gcs-induced osteoporosis in Balb/c female mice was used (18) to assess atrophy in both bone and skin induced by high-dose i.p. Dex injections (10 mg/kg) every 48 h for 5 weeks. LY294002 (20 mg/kg), Rapa (5 mg/kg) or vehicle were injected 6 h prior animal treatment with Dex.

[8] = combination with Dex, IC50 after 24 h treatment
[9] = used alone for 6 days, LY294002 50 uM, AZD8055 1 uM, WM 10 uM, Dex 1 uM
[10] = systemic Dex 10 mg/kg every 48 h, 5 weeks, LY294002 20 mg/kg

SMILES: COc1ccc(-c2ccc3c(N4CCOC[C@@H]4C)nc(N4CCOC[C@@H]4C)nc3n2)cc1CO [AZD8055]
apoptosis (sub-G1-phase cell population), used alone, Granta cells (Granta cells [1]): stimulated apoptosis | IC50 (CEM cells [2]): 1.36 µM | type of interaction with Dex (isobologram analysis), CEM cells (CEM cells [2]; [8]): mostly additive | apoptosis (sub-G1-phase cell population), used alone, CEM cells (CEM cells [3]): stimulated apoptosis | IC50 (Granta cells [4]): 2.02 µM | type of interaction with Dex (isobologram analysis), Granta cells (Granta cells [4]; [8]): mostly additive | Dex-induced GRE.Luciferase activity (GR [5]; 6 h pre-treatment, Dex 1 uM 24 h): inhibited Dex-induced GRE. Luciferase activity | basal GR activity (GRE.Luciferase) (GR [5]; applied individually): negatively affected basal GR activity | effect on REDD1 induction by Dex (REDD1; CEM and Granta cells, 6 h pre-treatment (LY294002 50 uM, WM 10 uM, AZD8055 1 uM), then Dex 24 h): prevented REDD1 induction | basal REDD1 expression (REDD1; inhibitor without Dex, mRNA in CEM cells, protein more pronounced in Granta cells): blocked basal and glucocorticoid-induced REDD1 expression | GR nuclear import (GR [6]): significantly prevented GR nuclear import

femoral bone thickness ([7]; Dex 10 mg/kg vs control): tendency in decrease
SMILES: C[C@@H]1C[C@H]2[C@@H]3CCC4=CC(=O)C=C[C@]4(C)[C@@]3(F)[C@@H](O)C[C@]2(C)[C@@]1(O)C(=O)CO [Dexamethasone]
decrease in tumor volume (Granta xenografts): ~40% | decrease of CEM survival (CEM cells [2]; [9]): 50-55% | decrease of Granta survival (Granta cells [4]; [9]): 50-55% | reduction in dermal adipose thickness [7, 10]: ~70% | reduction in epidermal thickness [7, 10]: ~50%

SMILES: O=c1cc(N2CCOCC2)oc2c(-c3ccccc3)cccc12 [LY294002]
decrease in tumor volume (Granta xenografts): ~70% | IC50 (CEM cells [2]): 62 µM | IC50 (Granta cells [4]): 77.6 µM

SMILES: CO[C@H]1C[C@@H]2CC[C@@H](C)[C@@](O)(O2)C(=O)C(=O)N2CCCC[C@H]2C(=O)O[C@H]([C@H](C)C[C@@H]2CC[C@@H](O)[C@H](OC)C2)CC(=O)[C@H](C)/C=C(\C)[C@@H](O)[C@@H](OC)C(=O)[C@H](C)C[C@H](C)/C=C/C=C/C=C/1C [Rapamycin]
decrease in tumor volume (Granta xenografts): ~75%

SMILES: COC[C@H]1OC(=O)c2coc3c2[C@@]1(C)C1=C(C3=O)[C@@H]2CCC(=O)[C@@]2(C)C[C@H]1OC(C)=O [Wortmannin]
IC50 (CEM cells [2]): 9.14 µM | IC50 (Granta cells [4]): 11.9 µM

— patent US20240058349A1, “PI3K INHIBITORS FOR PROTECTION AGAINST GLUCOCORTICOID-INDUCED ATROPHY” (Northwestern University, priority 2020, published 2024)
